Measured values from US20230028441A1, “NOVEL HETEROARYL-TRIAZOLE COMPOUNDS AS PESTICIDES” (Bayer Aktiengesellschaft, priority 2019, published 2023).

Tests used:
Assay type in all cases: in vivo
[1] = tested on: adult unfed cat fleas (Ctenocephalides felis); test: Ctenocephalides felis oral test; conditions: 48 h, 100 ppm in cattle blood, after 2 days
Summary of the method: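 About 20 adult unfed Ctenocephalides felis fed through parafilm on cattle blood dosed with compound (DMSO stock diluted in blood), blood chamber at 37°C, fleas at room temperature. Mortality (%) scored after 2 days; 100% means all fleas killed.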

[2] = tested on: adult engorged female ticks (Rhipicephalus microplus); test: Rhipicephalus (Boophilus) microplus injection test; conditions: 168 h, egg deposition after 7 days, read-out: efficacy (infertile eggs); for pest or weed control at 0.004 mg: 4 μg/animal
Summary of the method: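 Compound was dissolved in DMSO at 10 mg per 0.5 mL and diluted with DMSO to the test concentration. Five engorged adult females received a 1 μL abdominal injection and were kept in a climate chamber. After 7 days, fertile egg deposition was scored, with unclear eggs held until hatching at about 42 days; 100% efficacy means all eggs were infertile.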

[3] = tested on: cattle tick larvae (Rhipicephalus microplus), strain Parkhurst, resistant against synthetic pyrethroids; test: Rhipicephalus (Boophilus) microplus in-vitro contact test, larval cattle tick; conditions: 5 μg/cm^2 (=500 g/ha), after 48 hours, read-out: efficacy (larvae dead or moribund)
Summary of the method: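 Acetone solutions of compound were coated on glass tube walls (900 ppm giving 5 μg/cm^2) and dried. 20–50 pyrethroid-resistant Parkhurst larvae were held per tube at 27° C and 85% relative humidity; after 48 h negative geotaxis scored efficacy as percent larvae dead or moribund.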

[4] = tested on: larvae of the banded cucumber beetle (Diabrotica balteata); test: Diabrotica balteata spray test; conditions: 168 h, after 7 days, wheat seeds, read-out: efficacy (seedlings grown up); for pest or weed control at 32 µg/disc, 100 g/ha: 100 g/ha (=32 μg/well)
Summary of the method: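 Germinated wheat seedlings (5 per well, agar plates) sprayed with compound in acetone/DMF diluted in water with 1000 ppm emulsifier, then infested with 10-20 larvae per unit. Efficacy scored after 7 days as % seedling growth relative to untreated, uninfested control (100% = normal growth, 0% = none).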

[5] = tested on: fall armyworm larvae (Spodoptera frugiperda); test: Spodoptera frugiperda spray test (maize leaf sections); conditions: 168 h
Summary of the method: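 Maize leaf sections were sprayed with compound formulated in acetone/DMF and diluted in water containing 1000 ppm emulsifier. Once dry, sections were infested with fall armyworm larvae. Mortality (%) was scored after 7 days.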

[6] = tested on: Musca domestica strain WHO-N; test: Musca domestica test (MUSCDO surface treatment & contact assay); conditions: 24 hours after contact, read-out: efficacy (mortality); for mortality at 4 mg/m2: surface concentration 4 mg/m^2, 30 minutes exposure; for mortality at 20 mg/m2: surface concentration 20 mg/m^2, 30 minutes exposure
Method: Solvent: Aceton+2000 ppm rapeseed oil methyl ester (RME)
In order to produce a sufficient, active ingredient containing solution it is necessary to solve the test compound in the solvent-mix (acetone at 2 mg/ml/RME 2000 ppm). This solution is pipetted onto a glazed tile and after evaporation of the acetone, adult flies of the species Musca domestica strain WHO-N are placed onto the dried surface. The exposure time is 30 minutes. Mortality in percent (%) is determined 24 hours after contact of the insects to the treated surface. 100% mortality means that all tested insects are dead, whereas 0% means that no insect died.

[7] = tested on: brown planthopper (Nilaparvata lugens); test: Nilaparvata lugens spray test; conditions: in Oryza sativa, 96 h
Summary of the method: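 Rice plants (Oryza sativa) sprayed with compound in acetone/DMF diluted in water containing 1000 ppm alkylarylpolyglycol ether emulsifier, then infested with planthoppers. Mortality % scored after 4 days (100% = all killed, 0% = none killed).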

[8] = tested on: adult cat fleas (Ctenocephalides felis); test: Ctenocephalides felis in-vitro contact test, adult cat flea; conditions: 5 μg/cm^2 (=500 g/ha), after 48 hours, read-out: efficacy (fleas dead or moribund)
Summary of the method: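 Acetone solutions were coated on glass tube walls, 900 ppm giving 5 μg/cm^2. After drying, 5-10 adult fleas per tube were held 48 h at room temperature. Fleas unable to climb away from a 45-50 °C heating plate within 5 min were scored dead or moribund, as % efficacy.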

[9] = tested on: green peach aphid (Myzus persicae); test: Myzus persicae oral test; conditions: 120 h
Summary of the method: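 Compound was dissolved at 1 part by weight in 100 parts acetone, then diluted with water to test concentration and combined with IPL41 insect medium (33%+15% sugar). A mixed aphid population fed on this through a parafilm seal, and mortality (%) was scored after 5 days.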

SMILES	mortality at 100 ppm [1] [%]	pest or weed control at 0.004 mg [2] [%]	pest or weed control at 0.02 mg ([2]; 20 μg/animal) [%]	pest or weed control at 5 µg/cm2 [3] [%]	pest or weed control at 32 µg/disc, 100 g/ha [4] [%]	pest or weed control at 160 µg/disc, 500 g/ha ([4]; 500 g/ha (=160 μg/well)) [%]	mortality at 100 g/ha [5] [%]	mortality at 500 g/ha [5] [%]	mortality at 4 mg/m2 [6] [%]	mortality at 20 mg/m2 [6] [%]	mortality at 500 g/ha [7] [%]	pest or weed control at 5 µg/cm2 [8] [%]	mortality at 4 ppm [9] [%]	mortality at 100 g/ha [7] [%]
CC(NC(=O)c1cc(Cl)cc(C(F)(F)F)c1)c1nc(N)nn1-c1ccc(Cl)cn1 (racemic) [I-006, N-[1-[5-amino-2-(5-chloro-2-pyridyl)-1,2,4-triazol-3-yl]ethyl]-3-chloro-5-(trifluoromethyl)benzamide]	100	100	100	100	100	100	100	100	90 to 100	90 to 100	90	100	100	
CNc1nc(C(C)NC(=O)c2cc(C(F)(F)F)cc(C(F)(F)F)c2)n(-c2ncccn2)n1 (centres unmarked) [I-088]	100	100		100	100		100		90 to 100	90 to 100		100	100	100
